Data published in US12098145B2 (Libra Therapeutics, Inc., priority 2022, dated 2024).

What was measured:
[1] = target: T1, TRPML1 (Homo sapiens, UniProt Q9GZU1); test: Cellular TRPML1 assay (FLIPR, GCaMP6f calcium read-out); format: cell-based; conditions: HEKT-REx/GCaMP6f/TRPML1 cells, FLIPR TETRA, kinetic response over 300 seconds; read-out: TRPML1 FLIPR pEC50 (converted)
T1 construct: expressed in transfected cells; host or cells: HEK T-REx cells stably expressing GCaMP6f and TRPML1
In short: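 HEK T-REx cells stably expressing TRPML1 and GCaMP6f, seeded 24 h before in Optimem + 0.5% FBS. After ~10 min pre-incubation at room temperature, compounds in Ca2+-free Tyrode's buffer were injected on FLIPR Tetra (final DMSO 0.5%). Calcium fluorescence kinetics followed for 300 s.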

[2] = system: TFEB; test: TFEB translocation assay (TFEB reporter in U2OS cells, imaging); format: cell-based; conditions: Homo sapiens; U2OS cell line with TFEB reporter, 2 hours incubation, nucleus to cytoplasm ratio, normalized to Torin-1; read-out: TFEB Translocation pEC50 (converted)
In short: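 U2OS cells stably expressing mRFP-fused TFEB reporter, switched to Opti-MEM then treated 2 h at 37 °C with compounds (0.5% DMSO, 0.015% Tween 80). Hoechst-stained, PFA-fixed cells imaged at 20×; nucleus/cytoplasm intensity ratio per well normalized to Torin-1 (100%) and DMSO (0%).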

T1 sequence (Q9GZU1 whole entry): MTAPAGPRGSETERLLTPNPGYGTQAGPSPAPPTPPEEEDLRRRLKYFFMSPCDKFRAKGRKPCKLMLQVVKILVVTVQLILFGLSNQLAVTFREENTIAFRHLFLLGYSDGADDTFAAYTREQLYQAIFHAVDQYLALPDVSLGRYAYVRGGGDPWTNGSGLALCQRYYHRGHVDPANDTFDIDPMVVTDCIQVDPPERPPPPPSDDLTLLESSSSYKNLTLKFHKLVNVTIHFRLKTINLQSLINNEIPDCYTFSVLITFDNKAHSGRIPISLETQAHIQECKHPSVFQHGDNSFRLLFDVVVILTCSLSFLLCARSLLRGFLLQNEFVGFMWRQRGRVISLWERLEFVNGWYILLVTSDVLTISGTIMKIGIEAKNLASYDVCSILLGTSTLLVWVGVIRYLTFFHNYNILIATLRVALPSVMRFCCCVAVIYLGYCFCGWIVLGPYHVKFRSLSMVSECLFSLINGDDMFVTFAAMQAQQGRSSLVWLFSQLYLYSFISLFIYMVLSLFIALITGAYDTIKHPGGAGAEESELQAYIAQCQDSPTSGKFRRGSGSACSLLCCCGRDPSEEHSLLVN

Row | SMILES | EC50 [1] | EC50 [2]
1 | CCC1(CO)CN(c2nc(C(=O)Nc3cc(F)c(O[C@@H]4C[C@@H]5C[C@@H]5C4)c(Cl)c3)c(CC(F)(F)F)o2)C1 [Example 126, N-(4-(cis-bicyclo[3.1.0]hexan-3-yloxy)-3-chloro-5-fluorophenyl)-2-(3-ethyl-3-(hydroxymethyl)azetidin-1-yl)-5-(2,2,2-trifluoroethyl)oxazole-4-carboxamide] | 10 to 1000 nM | 10 to 1000 nM
2 | CCC1(CC)CN(c2nc(C(=O)Nc3cc(F)c(O[C@@H]4C[C@@H]5C[C@@H]5C4)c(Cl)c3)c(CC(F)(F)F)o2)C1 [Example 127, N-(4-(cis-bicyclo[3.1.0]hexan-3-yloxy)-3-chloro-5-fluorophenyl)-2-(3,3-diethylazetidin-1-yl)-5-(2,2,2-trifluoroethyl)oxazole-4-carboxamide] | 10 to 1000 nM | 10 to 1000 nM
3 | Cc1cc(NC(=O)c2nc(N3CC(C)(CO)C3)oc2CC(F)(F)F)cc(F)c1O[C@@H]1C[C@@H]2C[C@@H]2C1 [Example 128] | 10 to 1000 nM | 10 to 1000 nM
4 | Cc1cc(NC(=O)c2nc(N3CC(C)(CO)C3)oc2CC(F)(F)F)cc(F)c1OC1CC2CC(C2)C1 (stereo not drawn) [Example 129, N-(4-(bicyclo[3.1.1]heptan-3-yloxy)-3-fluoro-5-methylphenyl)-2-(3-(hydroxymethyl)-3-methylazetidin-1-yl)-5-(2,2,2-trifluoroethyl)oxazole-4-carboxamide] | 10 to 1000 nM | 10 to 1000 nM
5 | COC1(C)CN(c2nc(C(=O)Nc3cc(F)c(O[C@@H]4C[C@@H]5C[C@@H]5C4)c(Cl)c3)c(CC(F)(F)F)o2)C1 [Example 130, N-(4-(cis-bicyclo[3.1.0]hexan-3-yloxy)-3-chloro-5-fluorophenyl)-2-(3-methoxy-3-methylazetidin-1-yl)-5-(2,2,2-trifluoroethyl)oxazole-4-carboxamide] | 10 to 1000 nM | 10 to 1000 nM
6 | CCC1(CC)CN(c2nc(C(=O)Nc3cc(C)c(O[C@@H]4C[C@@H]5C[C@@H]5C4)c(F)c3)c(CC(F)(F)F)o2)C1 [Example 131, N-(4-(cis-bicyclo[3.1.0]hexan-3-yloxy)-3-fluoro-5-methylphenyl)-2-(3,3-diethylazetidin-1-yl)-5-(2,2,2-trifluoroethyl)oxazole-4-carboxamide] | 10 to 1000 nM | 10 to 1000 nM
7 | CC1(CO)CN(c2nc(C(=O)Nc3ccc(OC4CC5CC(C5)C4)c(F)c3)c(CC(F)(F)F)o2)C1 (stereo not drawn) [Example 135, N-(4-(bicyclo[3.1.1]heptan-3-yloxy)-3-fluorophenyl)-2-(3-(hydroxymethyl)-3-methylazetidin-1-yl)-5-(2,2,2-trifluoroethyl)oxazole-4-carboxamide] | 10 to 1000 nM | 10 to 1000 nM
8 | CC1(C)CN(c2nc(C(=O)Nc3ccc(OC4CCC5CC54)c(F)c3)c(CC(F)(F)F)o2)C1 (stereo not drawn) [Example 140, N-(4-(bicyclo[3.1.0]hexan-2-yloxy)-3-fluorophenyl)-2-(3,3-dimethylazetidin-1-yl)-5-(2,2,2-trifluoroethyl)oxazole-4-carboxamide] | 1000 to 10000 nM | 10 to 1000 nM
9 | COC1(C)CN(c2nc(C(=O)Nc3cc(F)c(O[C@@H]4C[C@@H]5C[C@@H]5C4)c(C#N)c3)c(CC(F)(F)F)o2)C1 [Example 142, N-(4-(cis-bicyclo[3.1.0]hexan-3-yloxy)-3-cyano-5-fluorophenyl)-2-(3-methoxy-3-methylazetidin-1-yl)-5-(2,2,2-trifluoroethyl)oxazole-4-carboxamide] | 10 to 1000 nM | 10 to 1000 nM
10 | O=C(Nc1ccc(OC2CC3CC(C3)C2)c(F)c1)c1nc(N2CCCC2)oc1CC(F)(F)F (stereo not drawn) [Example 143, N-(4-(bicyclo[3.1.1]heptan-3-yloxy)-3-fluorophenyl)-2-(pyrrolidin-1-yl)-5-(2,2,2-trifluoroethyl)oxazole-4-carboxamide] | 10 to 1000 nM | 10 to 1000 nM
11 | O=C(Nc1cc(F)c(O[C@@H]2C[C@@H]3C[C@@H]3C2)c(F)c1)c1nc(N2CCC3COCC32)oc1CC(F)(F)F (stereo partly drawn) [Example 144, N-(4-(cis-bicyclo[3.1.0]hexan-3-yloxy)-3,5-difluorophenyl)-2-(hexahydro-1H-furo[3,4-b]pyrrol-1-yl)-5-(2,2,2-trifluoroethyl)oxazole-4-carboxamide] | 10 to 1000 nM | 10 to 1000 nM
12 | CCC1(CC)CN(c2nc(C(=O)Nc3cc(F)c(OC4CC5CC(C5)C4)c(F)c3)c(CC(F)(F)F)o2)C1 (stereo not drawn) [Example 145, N-(4-(bicyclo[3.1.1]heptan-3-yloxy)-3,5-difluorophenyl)-2-(3,3-diethylazetidin-1-yl)-5-(2,2,2-trifluoroethyl)oxazole-4-carboxamide] | 10 to 1000 nM | 10 to 1000 nM
13 | CCC1(OC)CN(c2nc(C(=O)Nc3cc(F)c(OC4CC5CC(C5)C4)c(F)c3)c(CC(F)(F)F)o2)C1 (stereo not drawn) [Example 148, N-(4-(bicyclo[3.1.1]heptan-3-yloxy)-3,5-difluorophenyl)-2-(3-ethyl-3-methoxyazetidin-1-yl)-5-(2,2,2-trifluoroethyl)oxazole-4-carboxamide] | 10 to 1000 nM | 10 to 1000 nM
14 | CCC1(OC)CN(c2nc(C(=O)Nc3ccc(OC4CC5CC(C5)C4)c(F)c3)c(CC(F)(F)F)o2)C1 (stereo not drawn) [Example 149, N-(4-(bicyclo[3.1.1]heptan-3-yloxy)-3-fluorophenyl)-2-(3-ethyl-3-methoxyazetidin-1-yl)-5-(2,2,2-trifluoroethyl)oxazole-4-carboxamide] | 10 to 1000 nM | 10 to 1000 nM
15 | CCC1(OC)CN(c2nc(C(=O)Nc3cc(F)c(OC4CC5CCC4C5)c(F)c3)c(CC(F)(F)F)o2)C1 (stereo not drawn) [Example 150, N-(4-(bicyclo[2.2.1]heptan-2-yloxy)-3,5-difluorophenyl)-2-(3-ethyl-3-methoxyazetidin-1-yl)-5-(2,2,2-trifluoroethyl)oxazole-4-carboxamide] | 10 to 1000 nM | 10 to 1000 nM
16 | O=C(Nc1ccc(O[C@@H]2CC3C[C@@H]3C2)c(F)c1)c1nc(N2CCC3CC32)oc1CC(F)(F)F (stereo partly drawn) [Example 154, 2-(2-azabicyclo[3.1.0]hexan-2-yl)-N-(4-(cis-bicyclo[3.1.0]hexan-3-yloxy)-3-fluorophenyl)-5-(2,2,2-trifluoroethyl)oxazole-4-carboxamide] | 10 to 1000 nM | 10 to 1000 nM

Continued, in another order:

Row | EC50 [1] | SMILES | EC50 [2]
17 | 10 to 1000 nM | CCC1(CC)CN(c2nc(C(=O)Nc3cc(F)c(OC4CCC5CC54)c(F)c3)c(CC(F)(F)F)o2)C1 (stereo not drawn) [Example 155, N-(4-(bicyclo[3.1.0]hexan-2-yloxy)-3,5-difluorophenyl)-2-(3,3-diethylazetidin-1-yl)-5-(2,2,2-trifluoroethyl)oxazole-4-carboxamide] | 10 to 1000 nM
18 | 10 to 1000 nM | O=C(Nc1ccc(O[C@@H]2C[C@@H]3C[C@@H]3C2)c(F)c1)c1nc(N2CC3CC3C2)oc1CC(F)(F)F (stereo partly drawn) [Example 156, 2-(3-azabicyclo[3.1.0]hexan-3-yl)-N-(4-(cis-bicyclo[3.1.0]hexan-3-yloxy)-3-fluorophenyl)-5-(2,2,2-trifluoroethyl)oxazole-4-carboxamide] | 10 to 1000 nM
19 | 10 to 1000 nM | O=C(Nc1cc(F)c(O[C@@H]2C[C@@H]3C[C@@H]3C2)c(F)c1)c1nc(N2CCC3OCCC32)oc1CC(F)(F)F (stereo partly drawn) [Example 157, N-(4-(cis-bicyclo[3.1.0]hexan-3-yloxy)-3,5-difluorophenyl)-2-(hexahydro-4H-furo[3,2-b]pyrrol-4-yl)-5-(2,2,2-trifluoroethyl)oxazole-4-carboxamide] | 10 to 1000 nM
20 | 10 to 1000 nM | CCC1(OC)CN(c2nc(C(=O)Nc3ccc(O[C@@H]4C[C@@H]5C[C@@H]5C4)c(F)c3)c(CC(F)(F)F)o2)C1 [Example 159, N-(4-(cis-bicyclo[3.1.0]hexan-3-yloxy)-3-fluorophenyl)-2-(3-ethyl-3-methoxyazetidin-1-yl)-5-(2,2,2-trifluoroethyl)oxazole-4-carboxamide] | 10 to 1000 nM
21 | 10 to 1000 nM | O=C(Nc1ccc(O[C@@H]2C[C@@H]3C[C@@H]3C2)c(F)c1)c1nc(N2CC3CCC3C2)oc1CC(F)(F)F (stereo partly drawn) [Example 161, N-(4-(cis-bicyclo[3.1.0]hexan-3-yloxy)-3-fluorophenyl)-2-(3-azabicyclo[3.2.0]heptan-3-yl)-5-(2,2,2-trifluoroethyl)oxazole-4-carboxamide] | 10 to 1000 nM
22 | 10 to 1000 nM | O=C(Nc1ccc(O[C@@H]2C[C@@H]3C[C@@H]3C2)c(F)c1)c1nc(N2CCC3CCCC32)oc1CC(F)(F)F (stereo partly drawn) [Example 162, N-(4-(cis-bicyclo[3.1.0]hexan-3-yloxy)-3-fluorophenyl)-2-(hexahydrocyclopenta[b]pyrrol-1(2H)-yl)-5-(2,2,2-trifluoroethyl)oxazole-4-carboxamide] | 10 to 1000 nM
23 | 10 to 1000 nM | O=C(Nc1cc(F)c(O[C@@H]2C[C@@H]3C[C@@H]3C2)c(F)c1)c1nc(N2CCC3CCCCC32)oc1CC(F)(F)F (stereo partly drawn) [Example 163, N-(4-(cis-bicyclo[3.1.0]hexan-3-yloxy)-3,5-difluorophenyl)-2-(octahydro-1H-indol-1-yl)-5-(2,2,2-trifluoroethyl)oxazole-4-carboxamide] | 10 to 1000 nM
24 | 10 to 1000 nM | COC1(C)CN(c2nc(C(=O)Nc3cc(C)c(O[C@@H]4C[C@@H]5C[C@@H]5C4)c(F)c3)c(CC(F)(F)F)o2)C1 [Example 164, N-(4-(cis-bicyclo[3.1.0]hexan-3-yloxy)-3-fluoro-5-methylphenyl)-2-(3-methoxy-3-methylazetidin-1-yl)-5-(2,2,2-trifluoroethyl)oxazole-4-carboxamide] | 10 to 1000 nM
